# Reference: US8609635B2, “Fused tricyclic silyl compounds and methods of use thereof for the treatment of viral diseases” (priority 2010, dated 2013)
# Legend:
# [1] = system: HCV replicon gt1b_con1; experiment: Cell-based HCV replicon assay (TaqMan), genotype 1b (Con1); conditions: Hepatitis C virus, 72 h; replicon 1b (Con1); replicon RNA by TaqMan, day 3
# Experimental: (§1) Measurement of inhibition by compounds of the present invention was performed using the HCV replicon system. Several different replicons encoding different HCV genotypes or mutations were used. In addition, potency measurements were made using different formats of the replicon assay, including different ways of measurements and different plating formats. See Jan M. Vrolijk et al., A replicons-based bioassay for the measurement of interferons in patients with chronic hepatitis C, 110 J. VIROLOGICAL METHODS 201 (2003); Steven S. Carroll et al., Inhibition of Hepatitis C Virus RNA Replication by 2′-Modified Nucleoside Analogs, 278(14) J. BIOLOGICAL […] 11979 (2003). However, the underlying principles are common to all of these determinations, and are outlined below.
# (§2) Compounds of the present invention were assayed for cell-based anti-HCV activity using the following protocol. Replicon cells were seeded at 5000 cells/well in 96-well collagen I-coated Nunc plates in the presence of the test compound. Various concentrations of test compound, typically in 10 serial 2-fold dilutions, were added to the assay mixture, with the starting concentration ranging from 250 μM to 1 μM. The final concentration of DMSO was 0.5%, fetal bovine serum was 5%, in the assay media. Cells were harvested on day 3 by the addition of 1× cell lysis buffer (Ambion cat #8721). The replicon RNA level was measured using real time PCR (TaqMan® assay). The amplicon was located in 5B. The PCR primers were: 5B.2F, […] (SEQ. ID NO. 1); 5B.2R, […] (SEQ. ID NO. 2); the probe sequence was FAM-labeled […] (SEQ. ID NO. 3). GAPDH RNA was used as endogenous control and was amplified in the same reaction as NS5B (multiplex PCR) using primers and VIC-labeled probe recommended by the manufacturer (PE Applied Biosystem). The real-time RT-PCR reactions were run on ABI PRISM 7900HT Sequence Detection System using the following program: 48° C. for 30 minutes, 95° C. for 10 minutes, 40 cycles of 95° C. for 15 sec, 60° C. for 1 minute. The ΔCT values (CT5B-CTGAPDH) were plotted against the concentration of test compound and fitted to the sigmoid dose-response model using XLfit4 (MDL). […] Alternatively, to quantitate the absolute amount of replicon RNA, a standard curve was established by including serially diluted T7 transcripts of replicon RNA in the Taqman assay. All TaqMan® reagents were from PE Applied Biosystems. Such an assay procedure was described in detail in e.g. Malcolm et al., Antimicrobial Agents and Chemotherapy 50: 1013-1020 (2006).
# (§3) Wherein gt1a_H77 was prepared as described in Yi et al., J Virol. 2004, 78(15):7904-15; gt1b_con1 was prepared as described in Lohmann et al., Science 1999, 285(5424):110-3; and gt2a_JFH was prepared as described in Kato et al., Gastroenterology. 2003, 125(6):1808-17. Chimeric replicons contain NS5A from patient isolates of genotypes 1a, 1b, 2b, 3a and 4a as indicated.
# [2] = system: HCV replicon gt1a_H77; experiment: Cell-based HCV replicon assay (TaqMan), genotype 1a (H77); conditions: Hepatitis C virus, 72 h, replicon 1a (H77); replicon RNA by TaqMan, day 3
# Experimental: as §1, §2, §3
# [3] = system: HCV chimeric replicon with NS5A of genotype 3a (NC00982); experiment: Cell-based HCV replicon assay (TaqMan), chimeric replicon genotype 3a (NC00982); conditions: Hepatitis C virus, 72 h, read-out: HCV replicon EC50 3a (NC00982), chimeric replicon 3a (NC00982); replicon RNA by TaqMan, day 3
# Experimental: as §1, §2, §3
# [4] = system: HCV replicon gt2a_JFH; experiment: Cell-based HCV replicon assay (TaqMan), genotype 2a (JFH); conditions: Hepatitis C virus, 72 h, replicon 2a (JFH); replicon RNA by TaqMan, day 3
# Experimental: as §1, §2, §3
# [5] = system: HCV chimeric replicon with NS5A of genotype 4a (DQ41878); experiment: Cell-based HCV replicon assay (TaqMan), chimeric replicon genotype 4a (DQ41878); conditions: Hepatitis C virus, 72 h, read-out: HCV replicon EC50 4a (DQ41878)
# Experimental: as §1, §2, §3
# [6] = system: HCV replicon 1a (Y93H) mutant; experiment: Cell-based HCV replicon assay (TaqMan), genotype 1a mutant Y93H; conditions: Hepatitis C virus, 72 h, read-out: HCV replicon EC50 1a (Y93H)
# Experimental: as §1, §2, §3
# [7] = system: HCV replicon 1a (L31V) mutant; experiment: Cell-based HCV replicon assay (TaqMan), genotype 1a mutant L31V; conditions: Hepatitis C virus, 72 h, read-out: HCV replicon EC50 1a (L31V)
# Experimental: as §1, §2, §3
Compound,EC50 [1],EC50 [2],EC50 [3],EC50 [4],EC50 [5],EC50 [6],EC50 [7]
CC(C)[C@H](NC(=O)OC1(C)CC1)C(=O)N1C[Si](C)(C)C[C@@H]1c1ncc(-c2ccc(-c3ccc4c(ccc5nc([C@H]6C[C@H](F)CN6C(=O)[C@@H](NC(=O)OC6(C)CC6)C(C)C)[nH]c54)c3)c(F)c2)[nH]1 [Compound 83],52 nM,> 1 nM,> 100 nM,> 10 nM,> 100 nM,> 1000 nM,
CC(C)OC(=O)N[C@H](C(=O)N1C[Si](C)(C)C[C@@H]1c1ncc(-c2ccc(-c3ccc4c(ccc5nc([C@H]6C[C@H](F)CN6C(=O)[C@@H](NC(=O)OC(C)C)C(C)C)[nH]c54)c3)c(F)c2)[nH]1)C(C)C [Compound 84],2.4 nM,> 1 nM,> 100 nM,> 10 nM,> 100 nM,> 1000 nM,
COC(=O)N[C@H](C(=O)N1CCC(F)(F)C[C@H]1c1ncc(-c2ccc(-c3ccc4c(ccc5nc([C@@H]6C[Si](C)(C)CN6C(=O)[C@@H](NC(=O)OC)C(C)C)[nH]c54)c3)cc2)[nH]1)C(C)C [Compound 85],0.009 nM,0.102 nM,0.69 nM,0.065 nM,1.16 nM,728 nM,89 nM
CC(C)[C@H](NC(=O)OC1(C)CC1)C(=O)N1CCC(F)(F)C[C@H]1c1ncc(-c2ccc(-c3ccc4c(ccc5nc([C@@H]6C[Si](C)(C)CN6C(=O)[C@@H](NC(=O)OC6(C)CC6)C(C)C)[nH]c54)c3)cc2)[nH]1 [Compound 86],141 nM,> 1 nM,> 100 nM,> 10 nM,> 100 nM,> 1000 nM,> 1000 nM
COCCOC(=O)N[C@H](C(=O)N1CCC(F)(F)C[C@H]1c1ncc(-c2ccc(-c3ccc4c(ccc5nc([C@@H]6C[Si](C)(C)CN6C(=O)[C@@H](NC(=O)OCCOC)C(C)C)[nH]c54)c3)cc2)[nH]1)C(C)C [Compound 87],2.5 nM,> 1 nM,> 100 nM,> 10 nM,> 100 nM,> 1000 nM,> 1000 nM
CC(C)OC(=O)N[C@H](C(=O)N1CCC(F)(F)C[C@H]1c1ncc(-c2ccc(-c3ccc4c(ccc5nc([C@@H]6C[Si](C)(C)CN6C(=O)[C@@H](NC(=O)OC(C)C)C(C)C)[nH]c54)c3)cc2)[nH]1)C(C)C [Compound 88],4 nM,> 1 nM,> 100 nM,> 10 nM,> 100 nM,> 1000 nM,> 1000 nM
COC(=O)N[C@H](C(=O)N1C[Si]2(CCCC2)C[C@H]1c1ncc(-c2ccc(-c3ccc4c(ccc5nc([C@@H]6CC(F)(F)CN6C(=O)[C@@H](NC(=O)OC)C(C)C)[nH]c54)c3)cc2)[nH]1)C(C)C [Compound 89],0.006 nM,0.054 nM,0.275 nM,0.5 nM,0.035 nM,211 nM,
COC(=O)N[C@H](C(=O)N1CC[C@H](C)[C@H]1c1nc2ccc3cc(-c4ccc(-c5cnc([C@@H]6C[Si](C)(C)CN6C(=O)[C@@H](NC(=O)OC)C(C)C)[nH]5)cc4)ccc3c2[nH]1)C(C)C [Compound 95],0.015 nM,> 0.1 nM,0.066 nM,0.032 nM,1.22 nM,210 nM,9 nM
COC(=O)N[C@H](C(=O)N1C[Si](C)(C)C[C@H]1c1nc2ccc3cc(-c4ccc(-c5cnc([C@@H]6[C@@H]7C[C@@H]([C@@H](F)[C@H]7F)N6C(=O)[C@@H](NC(=O)OC)C(C)C)[nH]5)cc4)ccc3c2[nH]1)C(C)C [Compound 100],0.002 nM,0.043 nM,7.4 nM,0.023 nM,< 0.2 nM,204 nM,117 nM
